Several values for one entry are separate records, joined by “and”; a condition that tells them apart may be missing. Identical values can stand only once. Toxic doses and inconclusive results are not listed. The calls were made as follows: active = survival T/C of 150% or more; inactive = T/C below 125% in these data.
Tested on: CD2F1 mice, L1210 leukemia ip, survival T/C
Test: NCI In Vivo Anticancer Drug Screen. Data for tumor model L1210 Leukemia (intraperitoneal) in CD2F1 (CDF1) mice
Conditions: endpoint: mean survival time, higher = longer survival
Procedure, shortened: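 Ratio T/C, where T is the treated-group value and C the vehicle-dosed control value, from mice implanted with a transplantable tumor.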

[1] = dose: 100.0 mg/kg/injection, schedule: Q01DX001 (ip), vehicle: saline with Tween-80
[2] = dose: 200.0 mg/kg/injection, schedule: Q01DX001 (ip), vehicle: saline with Tween-80
[3] = dose: 100.0 mg/kg/injection, schedule: Q01DX009 (ip), vehicle: saline with Tween-80
[4] = dose: 100.0 mg/kg/injection, schedule: Q04DX003 (ip), vehicle: saline with Tween-80
[5] = dose: 200.0 mg/kg/injection, schedule: Q01DX009 (ip), vehicle: saline with Tween-80
[6] = dose: 200.0 mg/kg/injection, schedule: Q04DX003 (ip), vehicle: saline with Tween-80
[7] = dose: 400.0 mg/kg/injection, schedule: Q04DX003 (ip), vehicle: saline with Tween-80

Measured: T/C

Cc1ccc(/C=C(/F)OC(C)(C)C)cc1
inactive: dose: 50.0 mg/kg/injection, schedule: Q01DX001 (ip), vehicle: saline with Tween-80 97 % of control | [1] 101 % of control | [2] 100 % of control

CON(C)N=Nc1ccc(C(N)=O)cc1
inactive: dose: 4.68 mg/kg/injection, schedule: Q01DX009 (ip), vehicle: Klucel (hydroxypropylcellulose) (HPC) 96 % of control and 110 % of control | dose: 9.37 mg/kg/injection, schedule: Q01DX009 (ip), vehicle: Klucel (hydroxypropylcellulose) (HPC) 87 % of control and 109 % of control | dose: 18.75 mg/kg/injection, schedule: Q01DX009 (ip), vehicle: Klucel (hydroxypropylcellulose) (HPC) 96 % of control and 101 % of control | dose: 37.5 mg/kg/injection, schedule: Q01DX009 (ip), vehicle: Klucel (hydroxypropylcellulose) (HPC) 98 % of control and 104 % of control | dose: 75.0 mg/kg/injection, schedule: Q01DX009 (ip), vehicle: Klucel (hydroxypropylcellulose) (HPC) 100 % of control and 103 % of control | dose: 150.0 mg/kg/injection, schedule: Q01DX009 (ip), vehicle: Klucel (hydroxypropylcellulose) (HPC) 114 % of control and 103 % of control | dose: 300.0 mg/kg/injection, schedule: Q01DX009 (ip), vehicle: Klucel (hydroxypropylcellulose) (HPC) 114 % of control

COc1ccccc1NC(=O)Nc1ccc(C(=O)OCC(C)C)cc1
inactive: [3] 89 % of control | [4] 92 % of control | [5] 88 % of control | [6] 88 % of control | [7] 86 % of control

CN(C)CCCc1c2ccccc2nc2ccc(Cl)cc12
inactive: dose: 12.0 mg/kg/injection, schedule: Q04DX003 (ip), vehicle: saline 102 % of control | dose: 25.0 mg/kg/injection, schedule: Q04DX003 (ip), vehicle: saline 94 % of control | dose: 50.0 mg/kg/injection, schedule: Q04DX003 (ip), vehicle: saline 98 % of control

COc1ccccc1N=Nc1c(O)n(-c2ccccc2OC)c(=S)n(-c2ccc(C)cc2)c1=O
inactive: dose: 25.0 mg/kg/injection, schedule: Q04DX002 (ip), vehicle: saline with Tween-80 90 % of control | dose: 50.0 mg/kg/injection, schedule: Q04DX002 (ip), vehicle: saline with Tween-80 90 % of control | dose: 100.0 mg/kg/injection, schedule: Q04DX002 (ip), vehicle: saline with Tween-80 90 % of control

CCCCCCCC/C=C/CCCCCCCCCCCCCCBr
inactive: [4] 104 % of control | [6] 98 % of control | [7] 93 % of control

CCCCCCCC(=O)Oc1ccc(N=Nc2ccc(OCC)cc2)cc1
inactive: [3] 93 % of control | [4] 95 % of control | [5] 90 % of control | [6] 95 % of control | dose: 400.0 mg/kg/injection, schedule: Q01DX009 (ip), vehicle: saline with Tween-80 98 % of control | [7] 89 % of control

CCCCCCN(CCCCCC)CC(O)c1ccncc1 (stereo unspecified)
inactive: dose: 25.0 mg/kg/injection, schedule: Q04DX003 (ip), vehicle: saline sonified 100 % of control | dose: 50.0 mg/kg/injection, schedule: Q04DX003 (ip), vehicle: saline sonified 92 % of control | dose: 100.0 mg/kg/injection, schedule: Q04DX003 (ip), vehicle: saline sonified 100 % of control

CCOC(=O)CC(=O)c1ccc(C(=O)CC(=O)OCC)cc1
inactive: [1] 89 % of control | [2] 89 % of control | dose: 400.0 mg/kg/injection, schedule: Q01DX001 (ip), vehicle: saline with Tween-80 89 % of control

CC(C)(C)CC(C)(C)SSc1n[nH]c(=S)s1
inactive: dose: 2.5 mg/kg/injection, schedule: Q04DX003 (ip), vehicle: Klucel (hydroxypropylcellulose) (HPC) 102 % of control | dose: 5.0 mg/kg/injection, schedule: Q04DX003 (ip), vehicle: Klucel (hydroxypropylcellulose) (HPC) 101 % of control | dose: 10.0 mg/kg/injection, schedule: Q04DX003 (ip), vehicle: Klucel (hydroxypropylcellulose) (HPC) 98 % of control and 101 % of control

CO[C@@]12[C@@H]3N[C@@H]3CN1C1=C(C(=O)C(Nc3ccc(O)cc3C)=C(C)C1=O)[C@@H]2COC(N)=O
inactive: dose: 1.5 mg/kg/injection, schedule: Q01DX001 (ip), vehicle: water 119 % of control and 111 % of control | dose: 3.0 mg/kg/injection, schedule: Q01DX001 (ip), vehicle: water 122 % of control and 111 % of control | dose: 6.0 mg/kg/injection, schedule: Q01DX001 (ip), vehicle: water 120 % of control and 122 % of control | dose: 12.0 mg/kg/injection, schedule: Q01DX001 (ip), vehicle: water 120 % of control

Cc1cccc(Cl)c1NC1=NCCO1
inactive: dose: 6.25 mg/kg/injection, schedule: Q04DX003 (ip), vehicle: saline with Tween-80 100 % of control | dose: 12.5 mg/kg/injection, schedule: Q04DX003 (ip), vehicle: saline with Tween-80 100 % of control | dose: 25.0 mg/kg/injection, schedule: Q04DX003 (ip), vehicle: saline with Tween-80 111 % of control

Source: PubChem BioAssay AID256 (DTP/NCI, 2004)
